Consider 19 molecules from US7169803B2, “N-substituted prodrugs of fluorooxindoles” (Bristol-Myers Squibb Company, priority 2004, dated 2007).

The melting point is the temperature of the solid-liquid transition.

Where a name gives a salt, the structure may show the parent alone.

The test system of one data set is traumatic brain injury (TBI).
Assay: not given
The following applies: rat TBI model; Cheney, et al. 2001; cited from earlier work.
With `COc1ccc(Cl)cc1[C@]1(F)C(=O)Nc2cc(C(F)(F)F)ccc21` [Compound of Formula (S)-IV, (S)-3-(5-chloro-2-methoxyphenyl)-3-fluoro-6-(trifluoromethyl)-indolin-2-one], the “reductions in edema in regions adjacent to the impact zone” value is “significant reductions in edema”.

The test system of a further data set is cloned mammalian (mSlo or hSlo) BK channels heterologously expressed in Xenopus oocytes. The data set is described as follows: BK-mediated outward current in Xenopus oocytes, two-electrode voltage clamp. In kind it is cell-based. The following applies: 10 μM, at least 5 oocytes, steps from -60 mV to +140 mV. The protocol:
(§1) The ability of the compound of Formula IV to open BK channels and increase whole-cell outward (K^+) BK-mediated currents was assessed under voltage-clamp conditions by determining their ability to increase cloned mammalian (mSlo or hSlo) BK-mediated outward current heterologously expressed in Xenopus oocytes [Butler, A., et al., Science, 261, pp. 221–224 (1993); and Dworetzky, S. I., et al., Mol. Brain Res., 27, pp. 189–193 (1994)]. The two BK constructs employed represent nearly structurally identical homologous proteins, and have proven to be pharmacologically identical in our tests. To isolate BK current from native (background, non-BK) current, the specific and potent BK channel-blocking toxin iberiotoxin (IBTX) [Galvez, A., et al., J. Biol. Chem, 265, pp. 11083–11090 (1990)] was employed at a supramaximal concentration (50 nM). The relative contribution of BK channels current to total outward current was determined by subtraction of the current remaining in the presence of IBTX (non-BK current) from the current profiles obtained in all other experimental conditions (control, drug, and wash). […] The compound of Formula IV was shown in at least 5 oocytes at a concentration of 10 μM to increase BK current to 170% of control of IBTX-sensitive current. […]
In general terms: Two-electrode voltage clamp holds a large cell at a set potential and records current.
For `COc1ccc(Cl)cc1C1(F)C(=O)Nc2cc(C(F)(F)F)ccc21` (stereo not shown) [compound of Formula IV, 3-(5-chloro-2-methoxyphenyl)-3-fluoro-6-(trifluoromethyl)indolin-2-one], the “increase BK current to % of control of IBTX-sensitive current” value is listed as 170 % of control.

The next data set has as its system non-BK native currents in the oocytes. Briefly: Effect on non-BK native currents in oocytes (current remaining in presence of IBTX). The following applies: at the tested concentration. In kind it is cell-based, Xenopus. The protocol: as §1
`COc1ccc(Cl)cc1C1(F)C(=O)Nc2cc(C(F)(F)F)ccc21` (stereo not shown) [compound of Formula IV, 3-(5-chloro-2-methoxyphenyl)-3-fluoro-6-(trifluoromethyl)indolin-2-one]: the “effect on non-BK native currents in the oocytes” value is “did not effect non-BK native currents”.

Test system in the next data set: not given
Assay: not given
Conditions: cited from earlier work.
On to `COc1ccc(Cl)cc1[C@]1(F)C(=O)Nc2cc(C(F)(F)F)ccc21` [Compound of Formula (S)-IV, (S)-3-(5-chloro-2-methoxyphenyl)-3-fluoro-6-(trifluoromethyl)-indolin-2-one], for which the aqueous solubility entry is reported as “low aqueous solubility”.

The subject of a further data set is focal cerebral ischemia (MCAO). The data set is described as follows: Focal stroke model: permanent MCA/CCA occlusion, cortical infarct volume. In kind it is in vivo, Wistar rat. Conditions: intravenously (0.3 mg//kg) single bolus two hours after MCA occlusion; vs vehicle-treated control; measured 24 hours after MCAO. The protocol: To determine the ability of the compounds of the present invention to reduce cell loss resulting from neuronal ischemia, a standard focal cerebral ischemia is induced by permanent occlusion of the left middle cerebral artery (MCA) and common carotid artery (CCA) with one hour occlusion of the right CCA in the Wistar rat. The surgeries are performed using the sub-temporal approach of A. Tamura, et al., J. Cereb. Blood Flow Metab., 1, pp. 53–60, (1981) and its modifications [K. Osborne, et al., J. Neurol Neurosurg. Psychiatry, 50, pp. 402–410 (1987) and S. Menzies, et al., Neurosurgery, 31, pp. 100–107, (1992).]
The compound of Formula IV was evaluated in the focal stroke model involving permanent occlusion of the left MCA (MCAO) and CCA (CCAO) and temporary occlusion of the right CCA in the Wistar rat [Gribkoff, et al. Nature Med. 7, pp. 471–477 (2001)]. This procedure results in a reliably large neocortical infarct volume that is measured by means of vital dye exclusion in serial slices through the brain 24 hours after MCAO. In the present test, compounds were administered using an i.v. or i.p. route of administration two hours after occlusion.
Turning to `COc1ccc(Cl)cc1C1(F)C(=O)Nc2cc(C(F)(F)F)ccc21` (stereo not shown) [compound of Formula IV, 3-(5-chloro-2-methoxyphenyl)-3-fluoro-6-(trifluoromethyl)indolin-2-one], the “reduction of cortical infarct volume” value was “about 28%”.

Test system in a further data set: not given
Assay: not given
Conditions: not given
`COc1ccc(Cl)cc1[C@]1(F)C(=O)N(COC(=O)CN(C)C)c2cc(C(F)(F)F)ccc21` (as salt: hydrochloride) [Example 14, (S)-(3-(5-chloro-2-methoxyphenyl)-3-fluoro-2-oxo-6-(trifluoromethyl)indolin-1-yl)methyl 2-(dimethylamino)acetate, hydrochloride)] showed a melting point of 157 to 160 °C. The same measure, in the same setting: in the case of `COc1ccc(Cl)cc1[C@]1(F)C(=O)N(COC(=O)c2ccc(CN3CCOCC3)cc2)c2cc(C(F)(F)F)ccc21` (as salt: hydrochloride) [Example 23, (S)-(3-(5-chloro-2-methoxyphenyl)-3-fluoro-2-oxo-6-(trifluoromethyl)indolin-1-yl)methyl 4-(morpholinomethyl)benzoate, hydrochloride] it was 174 to 178 °C; in that of `COc1ccc(Cl)cc1[C@]1(F)C(=O)N(COC(=O)c2ccc(CN3CCN(C)CC3)cc2)c2cc(C(F)(F)F)ccc21` (as salt: hydrochloride) [Example 25], 265 to 269 °C (dec.). With `COc1ccc(Cl)cc1[C@]1(F)C(=O)N(COC(=O)c2cccc(CN3CCN(C)CC3)c2)c2cc(C(F)(F)F)ccc21` (as salt: hydrochloride) [Example 26], the melting point is 190 to 193 °C (dec.).

For `CCN(CC)Cc1cccc(C(=O)OCN2C(=O)[C@@](F)(c3cc(Cl)ccc3OC)c3ccc(C(F)(F)F)cc32)c1` (as salt: hydrochloride) [Example 28, (S)-(3-(5-chloro-2-methoxyphenyl)-3-fluoro-2-oxo-6-(trifluoromethyl)indolin-1-yl)methyl 3-((diethylamino)methyl)benzoate, hydrochloride], the melting point is 195 to 198 °C (dec.). Same read-out and setting: the figure for `CCN(CC)CCN(CC)Cc1ccc(C(=O)OCN2C(=O)[C@@](F)(c3cc(Cl)ccc3OC)c3ccc(C(F)(F)F)cc32)cc1` (as salt: hydrochloride) [Example 29, (S)-(3-(5-chloro-2-methoxyphenyl)-3-fluoro-2-oxo-6-(trifluoromethyl)indolin-1-yl)methyl 4-(((2-(diethylamino)ethyl)(ethyl)amino)methyl)benzoate, hydrochloride] is 155 to 160 °C; for `CCN(CC)CCN(CC)Cc1cccc(C(=O)OCN2C(=O)[C@@](F)(c3cc(Cl)ccc3OC)c3ccc(C(F)(F)F)cc32)c1` (as salt: hydrochloride) [Example 30, (S)-(3-(5-chloro-2-methoxyphenyl)-3-fluoro-2-oxo-6-(trifluoromethyl)indolin-1-yl)methyl 3-(((2-(diethylamino)ethyl)(ethyl)amino)methyl)benzoate, hydrochloride] it is 120 to 125 °C.

In turn, `CCN(CC)Cc1ccc(C(=O)OCN2C(=O)[C@@](F)(c3cc(Cl)ccc3OC)c3ccc(C(F)(F)F)cc32)cc1` (as salt: trifluoroacetate) [Example 27, (S)-(3-(5-chloro-2-methoxyphenyl)-3-fluoro-2-oxo-6-(trifluoromethyl)indolin-1-yl)methyl 4-((diethylamino)methyl)benzoate, trifluoroacetate] came in with a melting point of 75 to 80 °C. Turning to `COc1ccc(Cl)cc1[C@]1(F)C(=O)N(COC(=O)c2ccc(CN3CCCCC3)cc2)c2cc(C(F)(F)F)ccc21` (as salt: trifluoroacetate) [Example 31, (S)-4-Piperidin-1-ylmethyl-benzoic acid 3-(5-chloro-2-methoxy-phenyl)-3-fluoro-2-oxo-6-trifluoromethyl-2,3-dihydro-indol-1-ylmethyl ester, trifluoroacetate], the melting point was 85 to 89 °C. `COc1ccc(Cl)cc1[C@]1(F)C(=O)N(C(=O)OCOC(=O)CCC(=O)O)c2cc(C(F)(F)F)ccc21` [Example 16, (S)-4-((3-(5-chloro-2-methoxyphenyl)-3-fluoro-2-oxo-6-(trifluoromethyl)indoline-1-carbonyloxy)methoxy)-4-oxobutanoic acid]: the melting point is 68 to 71 °C (dec.). Still for that read-out and setting: in the case of `COc1ccc(Cl)cc1[C@]1(F)C(=O)N(C(=O)N[C@@H](C)C(=O)O)c2cc(C(F)(F)F)ccc21` [Example 35, (S)-2-((S)-3-(5-chloro-2-methoxyphenyl)-3-fluoro-2-oxo-6-(trifluoromethyl)-indoline-1-carboxamido)propanoic acid] it was 103 to 107 °C; in that of `COc1ccc(Cl)cc1[C@]1(F)C(=O)N(C(=O)N[C@@H](CCC(=O)O)C(=O)O)c2cc(C(F)(F)F)ccc21` [Example 37, (S)-2-((S)-3-(5-chloro-2-methoxyphenyl)-3-fluoro-2-oxo-6-(trifluoromethyl)-indoline-1-carboxamido)pentanedioic acid], 90 to 94 °C.

The molecule `COc1ccc(Cl)cc1[C@]1(F)C(=O)N(C(=O)NC(C)(C)C(=O)O)c2cc(C(F)(F)F)ccc21` [Example 38, (S)-2-(3-(5-chloro-2-methoxyphenyl)-3-fluoro-2-oxo-6-(trifluoromethyl)-indoline-1-carboxamido)-2-methylpropanoic acid] gave a melting point of 107 to 110 °C. On the same count and under the same terms, the figure for `COc1ccc(Cl)cc1[C@]1(F)C(=O)N(C(=O)N[C@H](C(=O)O)C(C)C)c2cc(C(F)(F)F)ccc21` [Example 39, (S)-2-((S)-3-(5-chloro-2-methoxyphenyl)-3-fluoro-2-oxo-6-(trifluoromethyl)-indoline-1-carboxamido)-3-methylbutanoic acid] is 100 to 104 °C. Same read-out and setting: the figure for `CC[C@H](C)[C@H](NC(=O)N1C(=O)[C@@](F)(c2cc(Cl)ccc2OC)c2ccc(C(F)(F)F)cc21)C(=O)O` [Example 40, (2S,3S)-2-((S)-3-(5-chloro-2-methoxyphenyl)-3-fluoro-2-oxo-6-(trifluoromethyl)indoline-1-carboxamido)-3-methylpentanoic acid] is 88 to 92 °C; for `COc1ccc(Cl)cc1[C@]1(F)C(=O)N(C(=O)N[C@@H](Cc2ccccc2)C(=O)O)c2cc(C(F)(F)F)ccc21` [Example 41, (S)-2-((S)-3-(5-chloro-2-methoxyphenyl)-3-fluoro-2-oxo-6-(trifluoromethyl)-indoline-1-carboxamido)-3-phenylpropanoic acid] it is 98 to 102 °C. Same read-out and setting: in the case of `COc1ccc(Cl)cc1[C@]1(F)C(=O)N(C(=O)NCCC(=O)O)c2cc(C(F)(F)F)ccc21` [Example 42, (S)-3-(3-(5-chloro-2-methoxyphenyl)-3-fluoro-2-oxo-6-(trifluoromethyl)-indoline-1-carboxamido)propanoic acid] it was 72 to 76 °C.
